Assay results published in patent US20230052424A1, “Peramivir Dry Powder Inhaler and Method of Preparing the Same” (GUANGZHOU NUCIEN PHARMACEUTICAL CO., LTD, priority 2020, published 2023).
Marks after values point to notes of the source that are not given here.

Legend:
[1] = tested on: Influenza A/PR/8/34 virus; assay: In vivo protection of mice infected with influenza virus (mortality, survival time); set-up: species or system Balb/c mice; details: 10 mg/kg intragastric, once per day 5 days from 2 h post-infection, 10 mice, 15 days observed
Description: 80 SPF Balb/c mice, half male and half female, weighing 16.9˜22.6 g each, were stochastically divided into 8 groups: a normal control group, a virus model group, an oseltamivir phosphate capsule group (Tamiflu) (10 mg/kg), a peramivir intravenous injection group (10 mg/kg), and peramivir dry powder inhaler (example 3) groups I-IV (0.1, 0.3, 0.9, 2.7 mg/kg), ten mice in each group. […] Prior to daily administration, the peramivir intravenous injection was prepared into a 1.0 mg/mL liquor with 0.9% sodium chloride injection, and the oseltamivir phosphate capsule was prepared into a 0.5 mg/mL liquor with pure water. The mice in each group were all administered at 2 h post-modeling of the intranasal virus infection, wherein the mice in each peramivir dry powder inhaler group were administered with a corresponding dosage of peramivir dry powder inhaler, the mice in the peramivir intravenous injection group were intravenously injected with the peramivir liquid as per a dosage of 10 mL/kg, the oseltamivir phosphate capsule group were intragastrically administered with oseltamivir phosphate liquid as per a dosage of 20 mL/kg, and the normal control group and the model control group were sprayed with air of the same volume via their trachea. The mice were administered once per day, 5 days in succession. The first day (D1) of virus infection was counted from the next day of the intranasal virus inflection modeling.

[2] = tested on: Influenza A/PR/8/34 virus; assay: Viral titer of mouse lung tissue (hemagglutination titer); assay type: in vivo, Balb/c mice; details: 10 mg/kg intragastric once per day, lung suspension, logarithmic value of maximum dilution factor
Description: 84 SPF Balb/c mice, half male and half female, weighing 21.2˜26.6 g each, were stochastically divided into 7 groups: a normal control group, a virus model group, an oseltamivir phosphate capsule group (Tamiflu) (10 mg/kg), a peramivir I.V. group (10 mg/kg), and peramivir dry powder inhaler (example 3) groups I-III (0.1, 0.3, 0.9 mg/kg), twelve mice in each group (in each group, F04˜F06 and M04˜M06 were subjected to 24 h hemagglutination titer measurement, and F01˜F03 and M1˜M03 were subjected to 48 h hemagglutination titer measurement). […] Prior to daily administration, the peramivir I.V. injection was prepared into a 1.0 mg/mL liquor with 0.9% sodium chloride injection, and the oseltamivir phosphate capsule was prepared into a 0.5 mg/mL liquor with pure water. The mice in each group were all administered at 2 h post-modeling of the intranasal virus infection, wherein the mice in each peramivir DPI group were administered with a corresponding dosage of peramivir dry powder inhaler, the mice in the peramivir intravenous injection group were intravenously injected with the peramivir liquid as per a dosage of 10 mL/kg, the oseltamivir phosphate capsule group were intragastrically administered with oseltamivir phosphate liquid as per a dosage of 20 mL/kg, and the normal control group and the model control group were sprayed with air of the same volume via their trachea. The mice were administered once per day, 2 days in succession.
6 mice, half male and half female, were stochastically selected from each group at 24 h and 48 h post-administration, respectively. The mice were euthanized by cervical dislocation and their lungs were procured through dissection and then put in a homogenizer. 0.9% sodium chloride injection was added according to a ratio of the lung weight (g) to 0.9% sodium chloride injection (mL)=1:9, followed by grinding the homogenates into mouse lung suspensions. The mouse lung suspensions were subjected to centrifugation at 2500 rpm for 20 min under a 4° C. environment, with the supernatant being acquired for future use. Except the first column, 50 μL PBS (Phosphate Buffer Saline) was added into hemagglutination plate wells. 100 μL to-be-tested supernatant was added into each well in the first column, respectively, followed by adding with serial dilution till the wells in the 11th column, and then 50 μL 0.5% chicken erythrocyte was added into each well, respectively, followed by setting for 40 min; the hemagglutination plate was then tilted to observe whether the erythrocyte flew in a teardrop shape. […]

[3] = listed as oseltamivir phosphate

## CCOC(=O)C1=C[C@@H](OC(CC)CC)[C@H](NC(C)=O)[C@@H](N)C1 [Oseltamivir phosphate]
[1]
  Average number of survival days: 11.3 ± 4.8 days
  Mortality rate (%): 40** %
  Number of deaths: 4
  Number of survivals: 6
[1]; [3]
  Average number of survival days: significantly prolonged
  Mortality rate (%): significantly decreased
[2]; 24 h, n = 6
  hemagglutination titer: 2.5 ± 0.5
[2]; 24 h, n = 6, listed as oseltamivir phosphate
  hemagglutination titer: notably decreased
[2]; 48 h, n = 6
  hemagglutination titer: 2.2 ± 0.8
[2]; 48 h, n = 6, listed as oseltamivir phosphate
  hemagglutination titer: notably decreased
